The values below come from patent US20210292330A1, “PYRROLIDINE-FUSED HETEROCYCLES” (Erasca, Inc., priority 2020, published 2021).

The assay addresses T1, KRAS 4B G12C protein (Homo sapiens, UniProt P01116, G12C).
T1 construct: This protein contained 188 amino acids in total, including an N-terminal 6-Histidine tag; made in house; host or cells: E. coli BL21
In words: In vitro covalent adduct formation (CAF) assay by LC-MS. The assay is classed as binding. Conditions: compound 10 μM, protein 5 μM, 22° C., percentage of protein bound by the compound. The gist of the method:
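Percent of protein covalently modified was quantified from intact-mass LC-MS ratios of free versus adducted protein, adducts within 1 Da of expected mass. Reactions: 10 μM compound, 5 μM His-TEV-KRAS 4B G12C (1-169) in TBS pH 7.4, 4% DMSO, 22° C., one hour, run in duplicate.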

Structures are written as SMILES.

Consider `C=CC(=O)N1CCN(c2nc(OC[C@@H]3CCCN3C)nc3c2CN(Cc2cc(C(F)F)ccc2C)C3)[C@@H](C)C1` [1-64], for which the “CAF (10 minutes/60 minutes) at 10 micromolar: 10 minutes” value (“CAF … at 10 micromolar: 10 minutes” below) amounted to 0%/ 0% and the “CAF (10 minutes/60 minutes) at 10 micromolar: 60 minutes” value (“CAF … at 10 micromolar: 60 minutes” below) is reported as 0%/ 0%.
Turning to `C=CC(=O)N1CCN(c2nc(OC[C@@H]3CCCN3C)nc3c2CN(C2CCc4ccccc42)C3)CC1` (stereo partly shown) [1-190], the “CAF … at 10 micromolar: 10 minutes” value is 6% and the “CAF … at 10 micromolar: 60 minutes” value is reported as 26%.
As to `C=CC(=O)N1CCN(c2nc(OC[C@@H]3CCCN3C)nc3c2CN(C2CCc4ccccc42)C3)C[C@@H]1Cn1nccn1` (stereo partly shown) [1-215], the “CAF … at 10 micromolar: 10 minutes” value came out at 0% and the “CAF … at 10 micromolar: 60 minutes” value was found to be 7%.
With `C=CC(=O)N1CCN(c2nc(OC[C@@H]3CCCN3C)nc3c2CN(C2CCc4ccccc42)C3)C[C@@H]1Cn1ccnn1` (stereo partly shown) [1-214], the “CAF … at 10 micromolar: 10 minutes” value was 0% and the “CAF … at 10 micromolar: 60 minutes” value stood at 2%.
Regarding `C=CC(=O)N1CCN(c2nc(OC[C@@H]3CCCN3C)nc3c2CN(Cc2cc(Cl)ccc2C)C3)C[C@@H]1CC#N` [1-67], the “CAF … at 10 micromolar: 10 minutes” value stood at 70% and the “CAF … at 10 micromolar: 60 minutes” value is 92%.
For `C=CC(=O)N1CCN(c2nc(OC[C@@H]3CCCN3C)nc3c2CN(Cc2c(Cl)cccc2OC)C3)C[C@@H]1C(O)C(F)(F)F` (stereo partly shown) [1-98], in that order: 0% and 1%.
Consider `C=CC(=O)N1CCN(c2nc(OC[C@@H]3CCCN3C)nc3c2CN(Cc2nc(N)cc(C)c2C(F)(F)F)C3)C[C@@H]1CC#N` [1-335], for which the “CAF … at 10 micromolar: 10 minutes” value was determined as 92% and the “CAF … at 10 micromolar: 60 minutes” value amounted to 95%.
For the molecule `C=CC(=O)N1CCN(c2nc(OC[C@@H]3CCCN3C)nc3c2CN(Cc2cccc4[nH]ncc24)C3)C[C@@H]1CC#N` [1-108], the “CAF … at 10 micromolar: 10 minutes” value came to 84% and the “CAF … at 10 micromolar: 60 minutes” value is reported as 97%.
On to `C=CC(=O)N1CC2CC(=O)CC(C1)N2c1nc(O[C@@H]2CN(C)C[C@H]2OC)nc2c1CN(C1CCc3ccccc31)C2` (stereo partly shown) [1-252], for which the “CAF … at 10 micromolar: 10 minutes” value turned out to be 0%/ 0% and the “CAF … at 10 micromolar: 60 minutes” value amounted to 0%/ 0%.
Consider `C=C(F)C(=O)N1CCN(c2nc(OC[C@@H]3CCCN3C)nc3c2CN(Cc2c(Cl)ccc(O)c2C)C3)C[C@@H]1CC#N` [1-311], for which the “CAF … at 10 micromolar: 10 minutes” value is reported as 93% and the “CAF … at 10 micromolar: 60 minutes” value is 95%.
Consider `C=CC(=O)N1CC2CCC1CN2c1nc(OC[C@@H]2CCCN2C)nc2c1CN(Cc1cc(OC)ccc1Cl)C2` (stereo partly shown) [1-161], for which the “CAF … at 10 micromolar: 10 minutes” value was determined as 0%/ 0% and the “CAF … at 10 micromolar: 60 minutes” value was determined as 0%/ 0%.
Regarding `C=CC(=O)N1CCN(c2nc(OC[C@@H]3CCCN3C)nc3c2CN(Cc2c(Cl)cccc2OC(F)F)C3)C[C@@H]1CC#N` [1-82], the “CAF … at 10 micromolar: 10 minutes” value is given as 94% and the “CAF … at 10 micromolar: 60 minutes” value came out at 98%.
`C=CC(=O)N1CCN(c2nc(OC[C@@H]3CCCN3C)nc3c2CN(Cc2cc(F)ccc2C(C)C)C3)C[C@@H]1CC#N` [1-172]: the “CAF … at 10 micromolar: 10 minutes” value is 68% and the “CAF … at 10 micromolar: 60 minutes” value is listed as 73%.
Turning to `C=C(F)C(=O)N1CCN(c2nc(OC[C@@H]3CCCN3C)nc3c2CN(Cc2cc(O)ccc2C(C)C)C3)C[C@@H]1CC#N` [1-218], the “CAF … at 10 micromolar: 10 minutes” value is 95% and the “CAF … at 10 micromolar: 60 minutes” value was determined as 94%.
As to `C=CC(=O)N1CCN(c2nc(OC[C@@H]3CCCN3C)nc3c2CN(C2CCc4ccccc42)C3)C[C@@H]1Cn1cccn1` (stereo partly shown) [1-220], the “CAF … at 10 micromolar: 10 minutes” value is given as 0% and the “CAF … at 10 micromolar: 60 minutes” value worked out at 2%.
As to `C=CC(=O)N1CCN(c2nc(OCCN3CCOCC3)nc3c2CN(Cc2cc(O)ccc2Cl)C3)C[C@@H]1CC#N` [1-134], the “CAF … at 10 micromolar: 10 minutes” value amounted to 98%/ 98% and the “CAF … at 10 micromolar: 60 minutes” value was 98%/ 98%.
For the molecule `C=CC(=O)N1CCN(c2nc(OC[C@@H]3CCCN3C)nc3c2CN(Cc2c(Cl)ccc4nc[nH]c24)C3)C[C@@H]1CC#N` [1-229], the “CAF … at 10 micromolar: 10 minutes” value is 94% and the “CAF … at 10 micromolar: 60 minutes” value was 95%.
With `C=CC(=O)N1CCN(c2nc(OC[C@@H]3CCCN3Cc3ccccc3)nc3c2CN(C2CCc4ccccc42)C3)C[C@@H]1CC#N` (stereo partly shown) [1-199], the “CAF … at 10 micromolar: 10 minutes” value is reported as 62% and the “CAF … at 10 micromolar: 60 minutes” value is given as 74%.
Consider `C=CC(=O)N1CCN(c2nc(OC[C@@H]3CCCN3C)nc3c2CN(Cc2[nH]c(=O)ccc2Cl)C3)[C@@H](C)C1` [1-69, 6-((4-((S)-4-acryloyl-2-methylpiperazin-1-yl)-2-(((S)-1-methylpyrrolidin-2-yl)methoxy)-5,7-dihydro-6H-pyrrolo[3,4-d]pyrimidin-6-yl)methyl)-5-chloropyridin-2(1H)-one], for which the “CAF … at 10 micromolar: 10 minutes” value is on record as 0%/ 0% and the “CAF … at 10 micromolar: 60 minutes” value was found to be 0%/ 0%.
Take `C=CC(=O)N1[C@H](C)CN(c2nc(OC[C@@H]3CCCN3C)nc3c2CN(Cc2c(Cl)ccc(O)c2C)C3)C[C@@H]1C` [1-333]: the “CAF … at 10 micromolar: 10 minutes” value is 17% and the “CAF … at 10 micromolar: 60 minutes” value is 59%.
`C=CC(=O)N1CCN(c2nc(OC[C@@H]3CCCN3C)nc3c2CN(Cc2c(Cl)ccc4c2CCCO4)C3)C[C@@H]1CC#N` [1-158]: the “CAF … at 10 micromolar: 10 minutes” value is on record as 49% and the “CAF … at 10 micromolar: 60 minutes” value is recorded as 89%.
With `C=C(F)C(=O)N1CCN(c2nc(OC[C@@H]3CCCN3C)nc3c2CN(Cc2cccc4ncccc24)C3)C[C@@H]1CC#N` [1-319], the “CAF … at 10 micromolar: 10 minutes” value is recorded as 0%/ 0% and the “CAF … at 10 micromolar: 60 minutes” value is 0%/ 0%.
`C=CC(=O)N1CCN(c2nc(OC[C@@H]3CCCN3C)nc3c2CN(Cc2ccccc2CC(F)(F)F)C3)C[C@@H]1CC#N` [1-225]: the “CAF … at 10 micromolar: 10 minutes” value stood at 77% and the “CAF … at 10 micromolar: 60 minutes” value stood at 93%.
Take `C=CC(=O)N1CCN(c2nc(OC[C@@H]3CCCN3C)nc3c2CN(Cc2cccc4ccccc24)C3)C[C@@H]1CC#N` [1-164]: the “CAF … at 10 micromolar: 10 minutes” value was 93% and the “CAF … at 10 micromolar: 60 minutes” value is on record as 95%.
Consider `C=CC(=O)N1CCN(c2nc(OC[C@@H]3CCCN3C)nc3c2CN(C2CCc4ccccc42)C3)[C@@H](C(N)=O)C1` (stereo partly shown) [1-193], for which the “CAF … at 10 micromolar: 10 minutes” value is reported as 7% and the “CAF … at 10 micromolar: 60 minutes” value was found to be 31%.
As to `C=CC(=O)N1CCN(c2nc(OC[C@@H]3CCCN3C)nc3c2CN(Cc2ccc(F)cc2Cl)C3)C[C@@H]1CC#N` [1-96], the “CAF … at 10 micromolar: 10 minutes” value turned out to be 51% and the “CAF … at 10 micromolar: 60 minutes” value is reported as 93%.
